Laboratory results: PubChem BioAssay (NCI)
Several values for one entry are separate records, joined by “and”; a condition that tells them apart may be missing. Equal entries are not always repeated.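 Method: 48-hour compound exposure of cells in 96-well plates, five concentrations, linear interpolation of endpoints. GI50: concentration for 50% inhibition of growth. TGI marks complete inhibition of growth.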

How the values were obtained:
Test in all cases: NCI tumour cell line growth inhibition, 48 h
BT-549 breast = test system: BT-549 breast
HCC-2998 colon = test system: HCC-2998 colon
HL-60(TB) leukemia = test system: HL-60(TB) leukemia
HOP-62 NSCLC = test system: HOP-62 NSCLC
HT29 colon = test system: HT29 colon
K-562 leukemia = test system: K-562 leukemia
KM12 colon = test system: KM12 colon
MCF7 breast = test system: MCF7 breast
MDA-MB-435 = test system: MDA-MB-435
MDA-N = test system: MDA-N
MOLT-4 leukemia = test system: MOLT-4 leukemia
NCI-H23 lung = test system: NCI-H23 lung
OVCAR-5 ovarian = test system: OVCAR-5 ovarian
SK-MEL-5 melanoma = test system: SK-MEL-5 melanoma
SN12C renal = test system: SN12C renal
SNB-75 CNS = test system: SNB-75 CNS
UO-31 renal = test system: UO-31 renal

Row | SMILES | TGI (BT-549 breast) [µM] | TGI (HCC-2998 colon) [µM] | TGI (HL-60(TB) leukemia) [µM] | TGI (HOP-62 NSCLC) [µM] | TGI (HT29 colon) [µM] | TGI (K-562 leukemia) [µM] | GI50 (KM12 colon) | TGI (KM12 colon) [µM] | TGI (MCF7 breast) [µM] | TGI (MDA-MB-435) [µM] | TGI (MDA-N) [µM] | TGI (MOLT-4 leukemia) [µM] | TGI (NCI-H23 lung) [µM] | TGI (OVCAR-5 ovarian) [µM] | TGI (SK-MEL-5 melanoma) [µM] | TGI (SN12C renal) [µM] | GI50 (SNB-75 CNS) | TGI (SNB-75 CNS) [µM] | TGI (UO-31 renal) [µM]
1 | NC(CCC(=O)NC(CSC(=O)N(O)c1ccc(Br)cc1)C(=O)NCC(=O)O)C(=O)O (configuration not stated) | > 50 | > 100 | > 100 | > 100 | > 100 | > 100 | > 100 µM and 45 µM | > 100 | > 50 | > 50 | > 50 | > 100 | > 100 | > 100 | > 100 | > 100 | 62.3 µM and 7.52 µM | > 100 | > 100
2 | CN(Nc1cc(=O)[nH]c(=O)[nH]1)c1ccccc1 | > 100 | > 100 | > 100 | > 100 | > 100 | > 100 |  | > 100 | > 100 | > 100 | > 100 | > 100 | > 100 | > 100 | > 100 | > 100 |  | > 100 | > 100
3 | N#CC(NNC(=O)Cc1ccccc1)c1ccccc1O (configuration not stated) | > 100 | 56.1 | 36 | > 70.6 | > 92.6 | > 100 |  | > 100 | > 89.5 | > 100 | > 100 | > 100 | 76.4 | > 90.9 | > 72.2 | > 100 |  | 85.6 | 25.4
4 | O=C1NC(=O)C(c2c[nH]c3cc(Br)ccc23)=C1c1cn(C(c2ccccc2)(c2ccccc2)c2ccccc2)cn1 | 38.8 | 26.4 | 39.5 | 83.9 | 27.1 | 45.9 |  | > 100 | 40.4 | > 100 | 27.8 | 23.5 | 25.3 | 39 | 22.9 | 31.8 |  | 48.8 | 31.9
5 | COC1=C(Br)[C@H](O)[C@@]2(C=C1Br)CC(C(=O)NCCCCCN=C(N)N)=NO2 | > 10 | > 10 | > 10 | > 10 | > 10 | > 10 |  | > 10 | > 10 | > 10 | > 10 | > 10 | > 10 | > 10 | > 10 | > 10 |  | > 10 | > 10
